ChEMBL document CHEMBL1146181, “7'-substituted benzothiazolothio- and pyridinothiazolothio-purines as potent heat shock protein 90 inhibitors” (J Med Chem, 2006)
≈ marks a conversion by molar mass, not a printed value.

Tests used:
MCF7 = test: Viability of MCF7 cells by MTS assay; format: functional, cell-based; conditions: Homo sapiens
Heat shock protein HSP90 [1] = target: T1, Heat shock protein HSP90 (Homo sapiens, UniProt P07900+P08238); test: Ability to degrade Her2 in MCF7 cells; format: functional, cell-based
[2] = Solubility in Balb/C mouse serum at pH 7.4; format: ADME, cell-free
[3] = Solubility in simulated intestinal fluid at pH 6.5; format: physicochemical
[4] = Solubility in simulated gastric fluid at pH 2.0; format: physicochemical
Heat shock protein HSP90 [5] = target: T1, Heat shock protein HSP90; conditions: mcf7
Description: Binding affinity to Hsp90 in MCF7 cell lysate

Mus musculus = test: AUC in Balb/C mouse at 100 mg/kg, po; format: ADME, organism-based, Plasma; design: dose 100 mg/kg, route oral; conditions: in vivo
NCI-N87 = test: Inhibition of N87 cell line xenografted in mouse at 200 mg/kg, po; format: functional, Homo sapiens; conditions: read-out: TGI
[6] = Cmax in Balb/C mouse at 100 mg/kg, po; format: ADME, organism-based; design: dose 100 mg/kg, route oral; conditions: in vivo

Structure (SMILES)	EC50 (MCF7)	IC50 (Heat shock protein HSP90 [1])	other results
CC(C)(C)NCCCn1c(Sc2nc3cccc(Cl)c3s2)nc2c(N)ncnc21	200 nM	150 nM	solubility [2]: 199 µg/mL (≈ 444 µM); solubility [3]: 138 µg/mL (≈ 307 µM)
CC(C)(C)CNCCn1c(Sc2nc3cccc(Cl)c3s2)nc2c(N)ncnc21	30 nM	35 nM	solubility [2]: 4.9 µg/mL (≈ 10.9 µM)
CC(=O)OCCCn1c(Sc2nc3cccc(Cl)c3s2)nc2c(N)ncnc21	200 nM	90 nM	solubility [4]: 220 µg/mL (≈ 506 µM); EC50 (Heat shock protein HSP90 [5]): 160 nM; solubility [2]: 9 µg/mL (≈ 20.7 µM); AUC (Mus musculus): 1040 ng·h/mL; solubility [3]: 16 µg/mL (≈ 36.8 µM)
CCCCn1c(Sc2nc3ccc(Cl)cc3s2)nc2c(N)ncnc21	20000 nM	7000 nM	
CCCCn1c(Sc2nc3cncc(Br)c3s2)nc2c(N)ncnc21	4000 nM	400 nM	
CCCn1c(Sc2nc3cccc(Cl)c3s2)nc2c(N)ncnc21	850 nM	250 nM	
CC(C)(C)NCCn1c(Sc2nc3cccc(Cl)c3s2)nc2c(N)ncnc21	300 nM	140 nM	
Nc1ncnc2c1nc(Sc1nc3cccc(Cl)c3s1)n2CCNC1CC1	300 nM	110 nM	inhibition in vivo at 200 mg/kg (NCI-N87): 56%; solubility [4]: 245 µg/mL (≈ 586 µM); EC50 (Heat shock protein HSP90 [5]): 130 nM; solubility [2]: 59 µg/mL (≈ 141 µM); AUC (Mus musculus): 7310 ng·h/mL; solubility [3]: 21 µg/mL (≈ 50.2 µM); Cmax [6]: 4510 ng/mL
CCCCn1c(Sc2nc3cncc(Cl)c3s2)nc2c(N)ncnc21	1000 nM	280 nM	
CCCCn1c(Sc2nc3ccc(Cl)c(Cl)c3s2)nc2c(N)ncnc21	20000 nM	25000 nM	
CC(=O)OCCCCn1c(Sc2nc3cccc(Cl)c3s2)nc2c(N)ncnc21	240 nM	130 nM	solubility [4]: 46 µg/mL (≈ 102 µM); EC50 (Heat shock protein HSP90 [5]): 140 nM; solubility [3]: 3 µg/mL (≈ 6.68 µM)
CCCCn1c(Sc2nc3cccc(Br)c3s2)nc2c(N)ncnc21	2000 nM	330 nM	
Nc1ncnc2c1nc(Sc1nc3cccc(Cl)c3s1)n2CCN1CCOCC1	300 nM	250 nM	EC50 (Heat shock protein HSP90 [5]): 150 nM
Nc1ncnc2c1nc(Sc1nc3cccc(Cl)c3s1)n2CCO	700 nM	300 nM	
CCCCn1c(Sc2nc3cccc(C)c3s2)nc2c(N)ncnc21	1300 nM	300 nM	
Nc1ncnc2c1nc(Sc1nc3cccc(Cl)c3s1)n2CCCO	250 nM	150 nM	
CCCCn1c(Sc2nc3cccc(F)c3s2)nc2c(N)ncnc21	1000 nM	200 nM	

Structure (SMILES)	EC50 (MCF7)	IC50 (Heat shock protein HSP90 [1])	other results
CCOP(=O)(CCn1c(Sc2nc3cncc(Br)c3s2)nc2c(N)ncnc21)OCC	100 nM		
CC(C)NCCCn1c(Sc2nc3cccc(Cl)c3s2)nc2c(N)ncnc21	500 nM	170 nM	
CCCCn1c(Sc2nc3cccc(Cl)c3s2)nc2c(N)ncnc21	250 nM	180 nM	
CCOP(=O)(CCn1c(Sc2nc3cncc(Cl)c3s2)nc2c(N)ncnc21)OCC	250 nM		solubility [4]: 124 µg/mL (≈ 248 µM); solubility [2]: 14 µg/mL (≈ 28 µM); solubility [3]: 38.3 µg/mL (≈ 76.6 µM)
CCn1c(Sc2nc3cccc(Cl)c3s2)nc2c(N)ncnc21	800 nM	200 nM	
N#CCCCCn1c(Sc2nc3cccc(Cl)c3s2)nc2c(N)ncnc21	300 nM	110 nM	solubility [4]: 58.7 µg/mL (≈ 141 µM); EC50 (Heat shock protein HSP90 [5]): 100 nM; solubility [2]: 31.3 µg/mL (≈ 75.3 µM); solubility [3]: 4.4 µg/mL (≈ 10.6 µM)
CCCCn1c(Sc2nc3ccccc3s2)nc2c(N)ncnc21	10000 nM	5000 nM	
CCCCCn1c(Sc2nc3cccc(Cl)c3s2)nc2c(N)ncnc21	6000 nM	700 nM	
CC(=O)OCCn1c(Sc2nc3cccc(Cl)c3s2)nc2c(N)ncnc21	300 nM	150 nM	
CCCCn1c(Sc2nc3cc(Cl)ccc3s2)nc2c(N)ncnc21	20000 nM	20000 nM	
CCCCn1c(Sc2nc3cccc(OCC)c3s2)nc2c(N)ncnc21	16000 nM	100000 nM	
CC(=O)OCCCn1c(Sc2nc3cncc(Cl)c3s2)nc2c(N)ncnc21	1000 nM	170 nM	
CCCCn1c(Sc2nc3cccc(OC)c3s2)nc2c(N)ncnc21	230 nM	190 nM	solubility [4]: 35 µg/mL (≈ 90.6 µM); EC50 (Heat shock protein HSP90 [5]): 200 nM; solubility [2]: 18 µg/mL (≈ 46.6 µM); solubility [3]: 2 µg/mL (≈ 5.17 µM)
Nc1ncnc2c1nc(Sc1nc3cccc(Cl)c3s1)n2CCCCO	200 nM	150 nM	
CCCCn1c(Sc2nc3c(Cl)cccc3s2)nc2c(N)ncnc21	20000 nM	15000 nM	
CCOP(=O)(CCn1c(Sc2nc3cccc(Cl)c3s2)nc2c(N)ncnc21)OCC			solubility [4]: 98.5 µg/mL (≈ 197 µM)
